{"source": "patent US10314804B2", "about": "“Composition containing norbixin for protecting cells of the retinal pigment epithelium” (BIOPHYTIS, priority 2015, dated 2019)", "key": {"[1]": {"test_system": "primary cultures of adult pig RPE", "settings": "cited from earlier work; for photoprotective activity on RPE cells in earlier tests (FR 11 54172): 0.1 μM, 1 μM and 10 μM"}, "[2]": {"test_system": "primary cultures of adult pig RPE", "test": "in vitro photoprotection test: RPE cells with A2E, blue light illumination, cell survival", "type": "cell-based", "settings": "20 μM (extract diluted to provide 20 μM of bixin), FIG. 1", "description": "The term “blue radiation” is intended to mean the radiation corresponding to the blue band of the visible light spectrum, that is to say having a wavelength of between 435 and 490 nm. This model uses primary cultures of adult pig RPE. The cell survival is quantified by means of a cell viability test. At −48 h, the compounds to be tested (in 5 mM solution in DMSO) are added so as to obtain final concentrations of 1 to 20 μM), then at −19 h, A2E is added (final concentration 30 μM) and the cells are irradiated (time 0 h). 24 h later, the cell survival is measured. The acquisition of the images and also the processing thereof are carried out by means of a fluorescence microscope controlled by the Metamorph software and of a dedicated quantification program. The experiments are carried out on 96-well microplates in quadruplicate and the experiment is reproduced a minimum of four times. The results are expressed in the form of a ratio representing the number of live cells in the wells treated with the molecules to be tested, divided by the number of live cells in the control wells (treated with the dilution medium without A2E)."}, "[3]": {"test": "bioavailability of bixin and norbixin, plasma analysis", "type": "in vivo, C57Bl/6 mice", "settings": "for Cmax: 50 mg/kg; for AUC(0-t): read-out: AUC 0-24 h; for detection in plasma over time: after bixin ingestion", "description": "Studies of the bioavailability of bixin and of norbixin were carried out in C57Bl/6 mice. The compounds were administered orally (50 mg/kg). Blood samples were taken after 0.25, 0.5, 1, 3, 6, 8 and 24 h and analyzed by HPLC-DAD (UV 460 nm)-MS/MS."}, "neuroganglion cells": {"test_system": "neuroganglion cells", "settings": "Yamauchi et al., 2011; cited from earlier work"}, "rats [4]": {"test_system": "rats", "test": "rat blue light model, intraperitoneal injection", "type": "in vivo", "settings": "100 mg/kg i.p.", "description": "The “rat blue light” model consists in subjecting the animals to a strong blue light for 6 hours in order to cause ocular damage that is assessed 7 days later by carrying out electroretinograms and then by histological analyses. An antioxidant compound, PBN (phenyl-N-tert-butylnitrone) is used as positive control (Ranchon et al., 2001; Tomita et al., 2005). The compounds of which it is sought to determine the photoprotective activity are injected (intraperitoneally) before and during the illumination phase. Said phase is carried out with Philips blue neon tubes (4.2 mW/cm^2) for 6 hours.\nThree series of experiments were carried out with norbixin (100 mg/kg, four injections per rat of a solution at 50 mM in 9‰ NaCl, 4 rats/series) using PBN (phenyl-N-tert-butylnitrone, 50 mg/kg, solution at 20 mg/ml in 9‰ NaCl) as positive control."}, "[5]": {"settings": "cited from earlier work"}, "[6]": {"test_system": "double KO mice (ABCA4−/−, RDH8−/−)", "test": "photoprotective activity by chronic oral administration (supplemented feed, 3 months)", "type": "in vivo", "description": "A feed containing 0.3 mg/g of pure norbixin was prepared and given to double KO mice (ABCA4^−/−, RDH8^−/−) for a period of 3 months."}, "[7]": {"test": "presence of norbixin in the eyes after intraperitoneal injection", "type": "in vivo, double KO mice (ABCA4−/−, RDH8−/−)", "description": "The presence of norbixin in the eyes was investigated in double KO mice (ABCA4^−/−, RDH8^−/−) 3 hours after intraperitoneal injection of norbixin (10 mg/kg). The eyes of 6 animals were dissected and the samples were extracted with acetonitrile, pooled and then analyzed by HPLC-MS/MS (FIG. 4), which made it possible to specifically detect the presence of norbixin in the RPE and the retina (table 2).\nGlucuronidation had also been described in the case of crocetin (Asai et al., 2005)."}, "rats [8]": {"test_system": "rats", "settings": "cited from earlier work"}, "[9]": {"test_system": "double KO mice (ABCA4−/−, RDH8−/−)", "test": "photoprotective activity by intravitreal injection, blue light exposure", "type": "in vivo", "source_text": "A genetically modified mouse model developed by Maeda et al. (2008) was used to test the photoprotective activity of norbixin. In this mouse model, two genes involved in the visual pigment cycle (ABCA4 and RDH8) are inactivated, which results in an early accumulation of A2E in the eyes (FIG. 5). This animal model is as a result similar to the human pathological condition, with of course its limits, associated with the differences in organization of the eyes between rodents and primates. 7-week-old mice were thus used to carry out unilateral intravitreal injections of norbixin (in order to obtain a final concentration in the vitreous body of 130 μM). After 24 h in the dark, the mice were subjected to an exposure to blue light (4000 lux, 1 h)."}, "[10]": {"settings": "C57Bl/6, mouse, plasma, po, Bixin ingestion (50 mg/kg), analyte as labelled"}, "[11]": {"settings": "C57Bl/6, mouse, po, Bixin ingestion (50 mg/kg), plasma, analyte as labelled"}}, "note": "Entries after “also recorded” stand apart in the source; their conditions may differ. Where two headings read alike, the source gives them in different places.", "data": [{"smiles": "COC(=O)/C=C/C(C)=C\\C=C\\C(C)=C\\C=C\\C=C(C)\\C=C\\C=C(C)\\C=C\\C(=O)O", "note": "[bixin, methylhydrogen 6,6′-diapocarotene-6,6′-dioate]", "values": [{"measurement": "photoprotective activity on RPE cells in earlier tests (FR 11 54172)", "setting": "[1]", "value": "do not have any photoprotective activity; also recorded: ineffective"}, {"measurement": "protection of RPE cells against phototoxicity induced in the presence of A2E (cell survival)", "setting": "[2]", "value": "effectively protect"}, {"measurement": "Cmax", "setting": "[3]; [10]", "value": 833, "unit": "ng/mL"}, {"measurement": "AUC(0-t)", "setting": "[3]; [11]", "value": 1670, "unit": "ng·h/mL"}, {"measurement": "Tmax", "setting": "[3]; C57Bl/6, mouse, po, Bixin ingestion (50 mg/kg), plasma, analyte as labelled, read-out: Tmax", "value": 30, "unit": "min"}, {"measurement": "detection in plasma over time", "setting": "[3]; oral 50 mg/kg", "value": "no longer detected after 8 hours"}, {"measurement": "conversion of ingested compound", "setting": "[3]; oral 50 mg/kg", "value": "rapidly converted into norbixin"}]}, {"smiles": "CC(/C=C/C=C(\\C)C(=O)O)=C\\C=C\\C=C(C)\\C=C\\C=C(/C)C(=O)O", "note": "[crocetin, 8,8′-diapocarotene-8,8′-dioate]", "values": [{"measurement": "protection against oxidative stress", "setting": "neuroganglion cells", "value": "protects"}]}, {"smiles": "O=c1oc2c(O)c(O)cc3c(=O)oc4c(O)c(O)cc1c4c23", "note": "[ellagic acid]", "values": [{"measurement": "photoprotective effect on RPE cells in earlier tests (FR 11 54172)", "setting": "[1]; 10 μM and 20 μM", "value": "advantageous photoprotective effect"}]}, {"smiles": "CC(=C/C=C/C(C)=C/C=C/C=C(C)/C=C/C=C(C)/C=C/C(=O)O)/C=C/C(=O)O", "note": "[norbixin]", "values": [{"measurement": "electroretinograms (A-waves and B-waves)", "setting": "rats [4]; four injections, blue light 6 hours, 7 days later, FIG. 8B", "value": "significant efficacity"}, {"measurement": "survival of the photoreceptors, histology", "setting": "rats [4]; FIGS. 9A and 9B", "value": "confirm the photoprotective action"}, {"measurement": "acceptable daily intake (ADI)", "setting": "[5]; JECFA/67/FC", "value": "at most 0.6 mg/kg/day of body weight"}, {"measurement": "daily intake with no observable adverse effect level in humans, equivalent", "setting": "[5]; equivalent of rat NOAEL", "value": 11, "unit": "mg/kg"}, {"measurement": "accumulation of norbixin in the eyes", "setting": "[6]; chronic treatment, feed, 3 months", "value": "no significant accumulation"}, {"measurement": "A2E accumulation in the eyes", "setting": "[6]; feed 0.3 mg/g, 3 months, FIG. 10", "value": "reduction in A2E accumulation"}, {"measurement": "amplitude of the electroretinogram (ERG)", "setting": "[6]; feed 0.3 mg/g, 3 months, FIG. 11", "value": "positive effect"}, {"measurement": "daily intake that significantly slows down the retinal degeneration", "setting": "[6]; mice, oral administration", "value": "48 mg/kg of body weight"}, {"measurement": "photoprotective activity on RPE cells in earlier tests (FR 11 54172)", "setting": "[1]", "value": "do not have any photoprotective activity"}, {"measurement": "Norbixin (ng/organ), Crystalline", "setting": "[7]; 3 hours after i.p. 10 mg/kg, Crystalline", "value": "<LOQ"}, {"measurement": "Norbixin (ng/organ), RPE", "setting": "[7]; 3 hours after i.p. 10 mg/kg, RPE", "value": 5.15, "unit": "ng/organ"}, {"measurement": "Norbixin (ng/organ), Retina", "setting": "[7]; 3 hours after i.p. 10 mg/kg, Retina", "value": 2.40, "unit": "ng/organ"}, {"measurement": "Norbixin (ng/organ), Total", "setting": "[7]; 3 hours after i.p. 10 mg/kg, Total", "value": 7.55, "unit": "ng/organ"}, {"measurement": "Norbixin (ng/organ), Vitreous humor", "setting": "[7]; 3 hours after i.p. 10 mg/kg, Vitreous humor", "value": "<LOQ"}, {"measurement": "conjugated forms in plasma and eyes", "setting": "[7]; HPLC-MS/MS, FIG. 4", "value": "gives two monoglucuronides"}, {"measurement": "intake up to which no toxicity was observed", "setting": "rats [8]; rat, in vivo", "value": 20, "unit": "mg/kg/day"}, {"measurement": "no observable adverse effect level (NOAEL)", "setting": "rats [8]; rats", "value": "69 mg/kg/day of body weight"}, {"measurement": "protection of RPE cells against phototoxicity induced in the presence of A2E (cell survival)", "setting": "[2]", "value": "effectively protect"}, {"measurement": "Tmax", "setting": "[3]; Bixin ingestion (50 mg/kg), plasma, analyte as labelled", "value": "Norbixin 0.5 h"}, {"measurement": "Cmax", "setting": "[3]; [10]", "value": 649, "unit": "ng/mL"}, {"measurement": "Cmax", "setting": "[3]; C57Bl/6, mouse, plasma, po, Norbixin ingestion (50 mg/kg)", "value": 12400, "unit": "ng/mL"}, {"measurement": "bioavailability", "setting": "[3]; C57Bl/6, mouse, plasma, intraperitoneal injection (5 mg/kg) versus oral administration (50 mg/kg), FIG. 3b", "value": 55, "unit": "%"}, {"measurement": "AUC(0-t)", "setting": "[3]; [11]", "value": 1340, "unit": "ng·h/mL"}, {"measurement": "AUC", "setting": "[3]; C57Bl/6, mouse, po, Norbixin ingestion (50 mg/kg), plasma", "value": 41600, "unit": "ng·h/mL"}, {"measurement": "Tmax", "setting": "[3]; C57Bl/6, mouse, po, Norbixin ingestion (50 mg/kg), plasma, read-out: Tmax", "value": 30, "unit": "min"}, {"measurement": "detection in plasma over time", "setting": "[3]; oral 50 mg/kg", "value": "no longer detected after 8 hours"}, {"measurement": "elimination from the eye after intravitreal injection", "setting": "[9]; 24 h after the intravitreal injection", "value": "virtually eliminated"}, {"measurement": "electroretinogram (A- and B-waves)", "setting": "[9]; intravitreal, 130 μM in vitreous body, blue light 4000 lux 1 h, 7 days later, FIG. 6", "value": "protective effect"}, {"measurement": "thickness of the layer of external nuclei (photoreceptors), histology", "setting": "[9]; intravitreal, 130 μM, FIG. 7", "value": "protective effect"}]}]}
